# Source: PubChem BioAssay (NCI)
# Several values for one entry are separate records, joined by “and”; a condition that tells them apart may be missing. Equal values may be shown once.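 How tested: cells in 96-well plates exposed to compound for 48 hours at five concentrations. GI50 = concentration required for 50% inhibition of growth. TGI: concentration producing complete growth inhibition.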
# Columns and labels:
# Test in all cases: NCI anticancer screen, dose series, 48 h
# NCI-H460 lung = test system: NCI-H460 lung
# SN12C renal = test system: SN12C renal
# MCF7 breast = test system: MCF7 breast
# OVCAR-3 ovarian = test system: OVCAR-3 ovarian
# UACC-257 melanoma = test system: UACC-257 melanoma
# NCI-H23 lung = test system: NCI-H23 lung
# SK-MEL-5 melanoma = test system: SK-MEL-5 melanoma
# SF-539 CNS = test system: SF-539 CNS
# MDA-MB-231 breast = test system: MDA-MB-231 breast
# CAKI-1 renal = test system: CAKI-1 renal
SMILES,GI50 (NCI-H460 lung) [µM],TGI (NCI-H460 lung) [µM],GI50 (SN12C renal) [µM],TGI (SN12C renal),GI50 (MCF7 breast) [µM],TGI (MCF7 breast) [µM],GI50 (OVCAR-3 ovarian) [µM],TGI (OVCAR-3 ovarian) [µM],GI50 (UACC-257 melanoma) [µM],TGI (UACC-257 melanoma),GI50 (NCI-H23 lung) [µM],TGI (NCI-H23 lung),GI50 (SK-MEL-5 melanoma) [µM],TGI (SK-MEL-5 melanoma),GI50 (SF-539 CNS) [µM],TGI (SF-539 CNS),GI50 (MDA-MB-231 breast) [µM],TGI (MDA-MB-231 breast) [µM],GI50 (CAKI-1 renal) [µM],TGI (CAKI-1 renal)
Cn1c(COC(=O)NCCc2ccccn2)nc2c(N3CCOCC3)nc(Cl)nc21,1.62,3.63,1.37,3.48 µM,0.946,2.95,1.08,2.58,1.53,3.28 µM,2,4.7 µM,1.74,3.29 µM,1.48,2.84 µM,1.62,3.63,0.974,2.16 µM
NCCO/C=C/C(N)C(=O)O (configuration not stated),,> 100,,> 100 µM,,> 100,,> 100,,> 100 µM,,> 100 µM,,> 100 µM,,> 100 µM,,> 100,,> 100 µM
CCCC(=O)O[C@]1(C)CC[C@@H]2[C@H]3[C@@H]1[C@@H]1C[C@@](C)(O)[C@H](OC)CC[C@](C)(OC(=O)[C@@H]2C)[C@H]3O1,56.3,> 100,24.8,59.5 µM,18.5,33.7,16.9,40,24.5,60.7 µM,96.1,> 100 µM,34.9,> 100 µM,71.7,> 100 µM,28.9,77.6,18.6,39.8 µM
O=S(=O)(NC1=NCCN1C(=S)SN1CCn2c1nsc2=S)c1ccc(Cl)cc1,10.2,38.6,8.56,22.5 µM,2.78,17.1,2.54,12.2,10.8,29.4 µM,14.4,32.6 µM,8.99,21.7 µM,1.47,3.12 µM,4.06,19.4,6.49,27.7 µM
CN(C)CCC(=O)Nc1ccc(-n2cc(-c3cccc(NC(=S)Nc4cccc(-c5cn(-c6ccc(NC(=O)CCN(C)C)cc6)nn5)c4)c3)nn2)cc1,26.6,96.6,61.5,> 100 µM,3.25,40.3,16.4,53.4,26.2,67.4 µM,57.2,> 100 µM,43.9,> 100 µM,28.1,78.2 µM,27.2,58.5,> 100,> 100 µM
COc1cc(N2C(=O)[C@H](Cl)C2c2ccc(SC)cc2)cc(OC)c1OC (some centres not stated),0.362,11.6,0.348,> 100 µM,0.0356,> 100,0.0294,0.089,32.2,> 100 µM,0.121,> 100 µM,0.0522,0.468 µM,0.0307,0.163 µM,0.238,> 100,0.0484,> 100 µM
O=c1[nH]c(C2CCCN2)nc2c1oc1ccc(Cl)cc12 (configuration not stated),> 100,> 100,> 100,> 100 µM,80.4,> 100,> 100,> 100,54.8,> 100 µM,> 100,> 100 µM,20.3,> 85 µM,36.9,> 100 µM,> 100,> 100,> 100,> 100 µM
O=C1C(=O)c2c(nc3ccc(C(F)(F)F)cn23)-c2ccccc21,0.466,1.08,0.186,0.354 µM,0.168,0.4,0.179,0.443,0.193,0.363 µM,0.175,0.477 µM,0.171,0.31 µM,0.169,0.313 µM,0.215,0.74,0.162,0.297 µM
Oc1ccc(Cl)cc1C=Nc1cnc2ccccc2c1,,> 100,,> 100 µM,,> 100,,> 59.8,,45.3 µM,,> 100 µM,,> 90 µM,,45.8 µM,,> 85.7,,> 100 µM
C[C@@]1(F)[C@H](O)[C@@H](CO)O[C@H]1n1ccc(=O)[nH]c1=O,> 100,> 100,> 100,> 100 µM,> 100,> 100,> 100,> 100,> 100,> 100 µM,> 100,> 100 µM,> 100,> 100 µM,> 100,> 100 µM,> 100,> 100,> 100,> 100 µM
C[C@@H]1C[C@@H]([C@H](O)CC2CC(=O)NC(=O)C2)C(=O)[C@@H](C)C1,0.234,,0.106,7.38 µM and 0.793 µM,0.216,7.15,0.675,,0.248,1.65 µM and 1.03 µM,0.274,4.78 µM and 0.941 µM,0.199,2.18 µM and 0.494 µM,0.214,2.7 µM and 0.838 µM,0.608,7.16,0.188,5.17 µM and 1.83 µM
Cc1n[nH]c2ccccc2c1=O,,> 100,,> 100 µM,,> 100,,> 100,,> 100 µM,,> 100 µM,,> 100 µM,,> 100 µM,,> 100,,> 100 µM
COc1c2ccoc2nc2c(OC)c(OCC(O)C(C)(C)O)ccc12 (configuration not stated),,> 100,,> 100 µM,,> 100,,> 100,,> 100 µM,,> 100 µM,,> 100 µM,,> 100 µM,,> 100,,> 100 µM
[N-]=[N+]=CC(=O)CCC(N)C(=O)O (configuration not stated),2.93,147,4.86,248 µM,0.641,> 250,1.45,> 244,78.5,> 250 µM,6.94,> 215 µM,1.48,105 µM,6.31,48.7 µM and > 250 µM,,> 250,10.9,84.5 µM
Nc1cc2c3c(cccc3c1)C(=O)N(CCN1CCCC1)C2=O,0.666,> 24.5,2.73,> 84.8 µM,1.18,35.6,5.26,29.3,3.35,24.5 µM,3.33,22.8 µM,1.65,4.01 µM,3.87,18.2 µM,4.95,40.7,1.43,5.83 µM
CC(C)(C)C[C@H]1N[C@@H](C(=O)NC2CCC(O)CC2)[C@H](c2cccc(Cl)c2F)[C@@]12C(=O)Nc1cc(Cl)ccc12 (some centres not stated),0.678,13.4,6.26,21.2 µM,0.228,2.98,8.68,21,1.16,13.7 µM,11.1,29.2 µM,1.41,3.19 µM,3.12,11.5 µM,1.82,4.41,0.162,12.4 µM
COC1=CC(=O)O/C1=C(\OC)C1OC1c1ccccc1 (configuration not stated),,> 100,,> 100 µM,,> 100,,> 100,,> 100 µM,,> 100 µM,,> 100 µM,,> 100 µM,,> 100,,> 100 µM
CCOC(=O)Nc1ccc2nc(-c3cscn3)[nH]c2c1,4.05,> 100,5.6,> 100 µM,2.68,> 100,3.79,23.4,5.21,> 100 µM,8.47,> 100 µM,3.33,> 49.1 µM,3.32,20.6 µM,7.81,> 100,5.63,> 100 µM
CC1CCC2C(C)C(=O)OC2C2(C)C(=O)C=CC12 (configuration not stated),,> 10,,> 10 µM,,> 10,,> 10,,> 10 µM,,> 10 µM,,> 10 µM,,> 10 µM,,> 10,,> 10 µM
CC1(C)CC(C)(C)c2cc(NC(=S)Nc3ccc([N+](=O)[O-])cc3)ccc2S1,27.6,> 69.3,10.3,22.2 µM,29.1,> 82.1,9.75,31.2,13.6,50.7 µM,12.2,50.2 µM,9.23,19.1 µM,10.8,22.7 µM,10.8,22.6,11.5,32.1 µM
CC1=NN(c2cccc(Cl)c2)C(=O)/C1=C\c1cn(CC(O)CN2CCCCC2)c2ccccc12 (configuration not stated),2.44,6.4,12.3,35.3 µM,6.47,21.5,7.98,20.9,2.35,4.62 µM,12.4,32.4 µM,3.34,10.9 µM,10.2,26.6 µM,3.32,15.8,1.83,5.33 µM
Cc1cccc(C2NC(=O)c3ccccc3N2)c1 (configuration not stated),,> 100,,> 100 µM,,> 100,,> 100,,> 100 µM,,> 54.7 µM,,> 100 µM,,9.07 µM,,> 87.6,,> 100 µM
O=C1c2cccc3cccc(c23)C(=O)N1CCCCCN1CCN(CCN=c2cc3n(-c4ccc(Cl)cc4)c4ccccc4nc-3cc2Nc2ccc(Cl)cc2)CC1,13.2,> 50,10.4,26.4 µM,8.24,38.4,1.07,3.4,13.7,31.1 µM,8.52,22.3 µM,7.46,18.1 µM,12.1,31 µM,5.82,30.3,6.33,20.5 µM
Clc1ccccc1C(Nc1cnccn1)Nc1cnccn1,,> 100,,> 100 µM,,> 100,,> 100,,> 100 µM,,> 100 µM,,> 100 µM,,> 100 µM,,> 100,,> 100 µM
COc1cc2c(cc1C)NC(=O)/C2=C/c1ccnc2ccccc12,15.3,> 50,12.6,> 50 µM,8.72,> 50,18.4,> 50,9.77,48.9 µM,25.5,> 50 µM,7.89,31.3 µM,20.8,> 50 µM,9.49,32.6,16.2,> 50 µM
N=C1CCCC1C(=S)SCCC(N)=O (configuration not stated),,> 100,,> 100 µM,,> 100,,> 100,,> 100 µM,,> 100 µM,,> 100 µM,,> 100 µM,,> 100,,> 100 µM
COC(=O)C(C(=O)C(=O)Nc1c(C)cccc1C(C)(C)C)c1nc2ccc(Cl)cc2[nH]c1=O (configuration not stated),,> 100,,> 100 µM,,> 100,,> 100,,> 100 µM,,> 100 µM,,> 100 µM,,> 100 µM,,> 100,,> 100 µM
O=C(Nc1ccc(Cl)cc1C(F)(F)F)C(=O)Nn1c(=S)[nH]c2ccccc2c1=O,,> 100,,> 100 µM,,> 100,,> 100,,> 100 µM,,> 100 µM,,> 100 µM,,> 100 µM,,> 100,,> 100 µM
COc1ccc2c(c1)C(=O)c1c-2c(OCCCN(C)C)nc2cc(Br)ccc12,2.54,7.57,2.01,4.51 µM,2.32,13.7,3.45,13.4,16.4,32.9 µM,11.3,24.6 µM,15,28.3 µM,1.69,3.16 µM,3.18,13.5,11,23.5 µM
